Assays:
Test in all cases: viability inhibition at highest dose (% inhibition); higher = more growth inhibition
[1] = tested on: T-47D Tam2; conditions: 4-OH-tamoxifen in medium 1 µM; 72 h
Procedure, shortened: (§1)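 Breast cancer cell lines and their resistant derivatives were seeded into 384-well plates holding FO2Baq library drugs at five concentrations spanning a 10 000-fold range. Resistant lines were in medium with 1 μM of the selecting drug. Cells were incubated 72 h at 37 °C, and CellTiter-Glo viability was read on a PHERAstar and normalised to vehicle-only and positive controls. Drug sensitivity score, relative IC50 (curve midpoint) and top-dose inhibition came from logistic dose–response fits (Breeze pipeline).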

[2] = tested on: T-47D Tam1; conditions: 4-OH-tamoxifen in medium 1 µM; 72 h
Procedure, shortened: as §1

[3] = tested on: BT-474 Tam2; conditions: 4-OH-tamoxifen in medium 1 µM; 72 h
Procedure, shortened: as §1

[4] = tested on: BT-474 Tam1; conditions: 4-OH-tamoxifen in medium 1 µM; 72 h
Procedure, shortened: as §1

[5] = tested on: ZR-75-1 Tam1; conditions: 4-OH-tamoxifen in medium 1 µM; 72 h
Procedure, shortened: as §1

[6] = tested on: ZR-75-1 Tam2; conditions: 4-OH-tamoxifen in medium 1 µM; 72 h
Procedure, shortened: as §1

[7] = tested on: MCF-7 Tam1; conditions: 4-OH-tamoxifen in medium 1 µM; 72 h
Procedure, shortened: as §1

[8] = tested on: T-47D; conditions: 72 h
Procedure, shortened: as §1

[9] = tested on: BT-474; conditions: 72 h
Procedure, shortened: as §1

[10] = tested on: ZR-75-1; conditions: 72 h
Procedure, shortened: as §1

[11] = tested on: MCF-7; conditions: 72 h
Procedure, shortened: as §1

SMILES	viability inhibition at highest dose [1]	viability inhibition at highest dose [2]	viability inhibition at highest dose [3]	viability inhibition at highest dose [4]	viability inhibition at highest dose [5]	viability inhibition at highest dose [6]	viability inhibition at highest dose [7]	viability inhibition at highest dose ([8]; 4-OH-tamoxifen in medium 0 µM)	viability inhibition at highest dose ([8]; 4-OH-tamoxifen in medium 1 µM)	viability inhibition at highest dose ([9]; 4-OH-tamoxifen in medium 0 µM)	viability inhibition at highest dose ([9]; 4-OH-tamoxifen in medium 1 µM)	viability inhibition at highest dose ([10]; 4-OH-tamoxifen in medium 0 µM)	viability inhibition at highest dose ([10]; 4-OH-tamoxifen in medium 1 µM)	viability inhibition at highest dose ([11]; 4-OH-tamoxifen in medium 0 µM)	viability inhibition at highest dose ([11]; 4-OH-tamoxifen in medium 1 µM)
COc1cc([C@@H]2c3cc4c(cc3[C@@H](O[C@@H]3O[C@@H]5CO[C@@H](c6cccs6)O[C@H]5[C@H](O)[C@H]3O)[C@H]3COC(=O)[C@H]23)OCO4)cc(OC)c1O [Teniposide] (drug 10000 nM)	46.3	78.3	13.2	62.6	37	42.4	18	54.1	36.5	54.2	87.3	43.9	35.7	55.1	28
CC(=O)[C@]1(O)Cc2c(O)c3c(c(O)c2[C@@H](O[C@H]2C[C@H](N)[C@H](O)[C@H](C)O2)C1)C(=O)c1ccccc1C3=O [Idarubicin] (drug 1000 nM)	45.9	83.7	65	87.9	55.2	62.4	39.5	68.9	59.5	77.2	96.2	61.7	52.2	80.6	66.6
Cc1cnc(NC(=O)Nc2cc(Br)c(C)cc2OC[C@@H]2CNCCO2)cn1 (drug 1000 nM)	-5.37	-0.37	-6.01	5	-1.46	-1.67	-4.01	-9.68	-8.57	-10.6	0.148	-7.46	-6.55	26.1	16.2
CC(C)n1cnc2c(NCCc3ccc(O)cc3)nc(-c3csc4ccccc34)nc21 [StemRegenin 1] (drug 10000 nM)	54.1	41.9	89	95.2	19.8	24.2	18.6	35.4	50.4	25.1	96.4	8.1	26.6	51.4	65.3
Cn1c(Nc2ccc(C(F)(F)F)cc2)nc2cc(Oc3ccnc(-c4ncc(C(F)(F)F)[nH]4)c3)ccc21 [RAF265] (drug 1000 nM)	2.98	22.5	9	4.22	-1.02	11.6	-5.31	12.4	-5.82	-9.23	7.76	2.38	-4.76	-2.02	-1.12
N#Cc1ccc(COC[C@H]2O[C@@H](n3c(NCc4ccc(Cl)c(Cl)c4)nc4c(N)ncnc43)[C@H](O)[C@@H]2O)cc1 (drug 10000 nM)	34.5	48	38.6	49.5	46.4	51.2	25.6	42.5	29	20.7	65.8	55.3	49.5	46.5	49.6

Source: the supplement of paper PMC4932681
